According to patent US11491126B2, “Method for reducing lung inflammation” (priority 2017, dated 2022):
“Also recorded” adds a separate entry of the source. Read-outs that look alike come from different tables or passages of the source.

How the values were obtained:
[1] = test system: Pseudomonas spp. (P. aeruginosa) in sputum
Source text: Patients were monitored for a further four weeks, bringing the total study time to 10 weeks.

bacterial infections = conditions: inhaled EDTA alone; cited from earlier work
[2] = remark: listed apart in the source
Experimental: Following discharge, treatment was continued twice a day for four weeks. Subjects were monitored for a further four weeks, bringing the total study time to 10 weeks.
At each study visit, lung function was measured by spirometry. Data was recorded as the best of three attempts, and results were expressed as % predicted.

[3] = versus placebo
Experimental: A single centre, randomised, double blind, crossover study of cystic fibrosis subjects is carried out. Subjects are randomised for treatment with inhaled CaEDTA or saline (placebo) for two weeks.
Iron levels, inflammatory markers, MMP/TIMP and FEV1 are monitored as above. Myeloperoxidase activity is also assayed as a measure of neutrophilic inflammation as previously described (Gaggar et al., Eur Respir J. 2011 38(3): 721-727). 3-chlorotyrosine will be measured as a biomarker of the potent oxidant hypochlorous acid. Levels are measured using stable isotope dilution gas chromatography with mass spectrometry (Gaggar et al., Eur Respir J. 2011 38(3): 721-727). Protein carbonyls are measured as an indicator of reactive oxygen species (ROS) using a commercial immunoassay kit (Gaggar et al., Eur Respir J. 2011 38(3): 721-727).

P. aeruginosa biofilms = experiment: Biofilms in suspended drops of cystic fibrosis mucus treated with nebulised/aerosolised agents; assay type: cell-based, Pseudomonas aeruginosa; conditions: treated 5 min, incubated 16 hours; tobramycin 20 mg/ml, CaEDTA particles 10 mg/ml
[4] = remark: listed apart in the source
Experimental: Subjects are then discharged and treatment continued twice a day for four weeks. Subjects are monitored for a further four weeks, bringing the total study time to 10 weeks. Sputum is collected by induction with nebulised 3% hypertonic saline at 8-10 L/min for ≥5 minutes. Samples is collected prior to treatment, and at 2, 6 and 10 weeks, processed according to the relevant protocol and stored at −80° C.
Expectorated sputum is stored in RNAlater®, total RNA is extracted using a Qiagen RNEasy® or similar extraction kit, converted into cDNA, and inflammatory markers monitored using qPCR as described by Sivaneson et al. (Mol Microbiol 79, 1353-1366) and quantified relative to known housekeeping genes, such as actin and/or GAPDH.
Expectorated sputum is frozen directly without processing and assayed for inflammatory markers as above. As a measure of structural damage, levels of matrix metalloproteinases (MMPs) and tissue inhibitors of metalloproteinases (TIMPs) are measured using gelatin zymography and immunoassays, respectively as previously described (Gaggar et al., Eur Respir J. 2011 38(3): 721-727; Garratt et al., Eur Respir J. 2015 46(2):384-94). The amount of iron in the sputum is quantified by ICP-MS as previously described (Hunter et al., MBio. 2013 4(4):1-8). The amount of iron-binding proteins is assessed using immunoassays. Oxidative stress is assessed by measuring glutathione (GSSG and GSH) using immunoassays as previously described (Kettle et al., Eur Respir J. 2014 44(1):122-9).

[5] = in vivo; cited from earlier work
[6] = remark: listed apart in the source
Experimental: Subjects with CF who need treatment with dry powder tobramycin will be allocated into four cohorts and receive 112 mg dry powder twice a day for 28 days. In addition, Cohort 1 (patients >18 years) will receive ascending doses of dry powder CaEDTA (37.5 mg BID for 1 week; 75 mg BID for 2 weeks, 150 mg BID for 1 week). Cohort 2 (patients >18 years) will receive CaEDTA (37.5 mg BID for 1 week; 75 BID for 2 weeks; 75 mg QID for 1 week). Cohort 3 (patients 12-18 years) will receive CaEDTA (37.5 mg BID for 1 week; 75 mg BID for 2 weeks, 150 mg BID for 1 week. Finally, an observational cohort will receive tobramycin alone for 28 days.
Sputum samples will be collected weekly and assessed for markers of infection and inflammation. Bacteria will be monitored by sputum colony counts. As a measure of structural damage, levels of matrix metalloproteinases (MMPs) and tissue inhibitors of metalloproteinases (TIMPs) are measured using gelatin zymography and immunoassays, respectively, as previously described (Gaggar et al., Eur Respir J. 2011 38(3): 721-727; Garratt et al., Eur Respir J. 2015 46(2):384-94). The amount of iron in the sputum is quantified by ICP-MS as previously described (Hunter et al., MBio. 2013 4(4):1-8). The amount of iron-binding proteins is assessed using immunoassays. Myeloperoxidase activity are also assayed as a measure of neutrophilic inflammation as previously described (Gaggar et al., Eur Respir J. 2011 38(3): 721-727). 3-chlorotyrosine is measured as a biomarker of the potent oxidant hypochlorous acid. Levels are measured using stable isotope dilution gas chromatography with mass spectrometry (Gaggar et al., Eur Respir J. 2011 38(3): 721-727). Protein carbonyls are measured as an indicator of reactive oxygen species (ROS) using a commercial immunoassay kit (Gaggar et al., Eur Respir J. 2011 38(3): 721-727). Oxidative stress is assessed by measuring glutathione (GSSG and GSH) using immunoassays as previously described (Kettle et al., Eur Respir J. 2014 44(1):122-9). Gene expression of inflammatory and oxidative stress markers (e.g. IL-8, IL-6, TNFa) will also be monitored by Nanostring, and proteins will be measured by ELISA. Oxidative stress can also be measured via metabolites, such as molondialdehyde (colorimetric assay) or 8-isoprostane (ELISA). Iron will be measured by elemental analysis using laser ablation-inductively coupled plasma-mass spectrometry (LA-ICP-MS).

[7] = in vivo; cited from earlier work; remark: listed apart in the source
Lung epithelial cells = conditions: versus controls
Experimental: Lung epithelial cells are grown in tissue culture and inflammation induced by exposure to Fe(II) or excess oxygen. The cells are treated with CaEDTA (0, 1, 5, 10, 25, 50 mM) for 30 min, 1, 3, 24 and 48 hours.
Immunoassays are used to monitor the change in inflammatory markers, such as IL-6, IL-8, TNF-α, neutrophil elastase and others. Oxidative stress and toxicity is measured by assessing reduced glutathione (GSH) levels and apoptosis based on a TUNEL assay, both using commercial assay kits such as ThermoFisher Scientific's Glutathione Fluorescent Detection Kit and BioVision Inc's TUNEL DNA Gragmentation Assay Kit.

[8] = test system: Pseudomonas aeruginosa clinical strain; experiment: MIC of tobramycin for the clinical strain used for biofilms; assay type: cell-based; conditions: P. aeruginosa clinical strain
[9] = ten CF children, nebulised, three months; cited from earlier work
[10] = EDTA group versus placebo group

O=C([O-])CN(CCN(CC(=O)[O-])CC(=O)[O-])CC(=O)[O-].[Ca+2].[Na+].[Na+] [CaEDTA, CaNa2EDTA]
bacterial load in expectorated mucus ([1]; CF subjects, nebulised CaEDTA versus saline): reduces the bacterial load in CF lungs faster than antibiotic treatment alone | EDTA concentration in sputum (5 minutes after 75 mg nebulised CaEDTA, CF subjects): 0.41 to 1.34 mM | EDTA concentration inside mucus plugs (single dose of 75 mg CaEDTA, after 30 minutes): up to 1.34 mM

O=C(O)CN(CCN(CC(=O)O)CC(=O)O)CC(=O)O [EDTA, ethylene diamine tetraacetic acid]
reduction in colony counts of P. aeruginosa (McC agar) versus start of treatment ([1]; after two weeks of treatment, 300 mg EDTA/day with tobramycin, placebo 4.5-fold): > 400 fold | treatment of bacterial infections (bacterial infections): does not treat bacterial infections | mean increase in FEV1 ([2]; after 2 weeks, 300 mg EDTA/day, placebo 5% points): 16 % points | increase in FEV1 ([2]; four weeks after the treatment had been completed (10 weeks), placebo 2% point): 7 % points | effect on lung function ([2]; mg EDTA/kg body weight): dose-dependent effect on lung function | MMP/TIMP balance [3]: altered MMP/TIMP balance | inflammatory markers [3]: reduced levels of iron and inflammatory markers | iron levels [3]: reduced levels of iron | mean FEV1 [3]: increased mean FEV1 | mean levels of chlorotyrosine and carbonyls [3]: lower mean levels of chlorotyrosine and carbonyls | myeloperoxidase activity [3]: reduced myeloperoxidase activity | biofilm viability / killing (BacLight LIVE/DEAD, confocal microscopy) (P. aeruginosa biofilms): some degree of killing; also recorded: kill P. aeruginosa biofilms and act synergistically with tobramycin | gene expression of inflammatory markers in sputum (qPCR) [4, 10]: mean reduction in the gene expression of inflammatory markers | inflammatory markers in sputum [4, 10]: reduction in inflammatory markers | balance between MMPs and TIMPs ([4]; especially MMP-9 and TIMP-1): change in the balance between MMPs and TIMPs | bronchoconstriction [5]: concentration-dependent bronchoconstriction | inflammatory markers in sputum [6, 10]: reduction in inflammatory markers | iron levels in sputum [6, 10]: decrease in iron levels | balance between MMPs and TIMPs ([6]; especially MMP-9 and TIMP-1): change in the balance between MMPs and TIMPs | FEV1 ([6]; versus control patients): increase in FEV1 | bacterial load in sputum ([6]; versus control patients): reduction of bacterial load in sputum | effect on FEV1 [7]: no effect on FEV1 | inflammatory markers (IL-6, IL-8, TNF-α, neutrophil elastase) (Lung epithelial cells; CaEDTA 0-50 mM, 30 min to 48 hours): concentration dependent reduction in inflammatory markers | apoptosis (TUNEL assay) (Lung epithelial cells): reduced apoptosis | reduced glutathione (GSH) levels (Lung epithelial cells): reduction in GSH

NC[C@H]1O[C@H](O[C@H]2[C@H](O)[C@@H](O[C@H]3O[C@H](CO)[C@@H](O)[C@H](N)[C@H]3O)[C@H](N)C[C@@H]2N)[C@H](N)C[C@@H]1O [tobramycin]
MIC [8]: > 256 µg/mL | biofilm viability / killing (BacLight LIVE/DEAD, confocal microscopy) (P. aeruginosa biofilms): little effect on viability

sodium EDTA
lung function [9]: no change in lung function
